We go through 13 compounds from patent US9475816B2, “Substituted-1,4-dihydropyrazolo[4,3-b]indoles” (TAKEDA PHARMACEUTICAL COMPANY LIMITED, priority 2012, dated 2016).

Broadly, the IC50 is the concentration at which inhibition is half-maximal. Read a low IC50 as inhibition by little substance.

Assay [1] deals with T1, human MetAP2 enzyme (Homo sapiens, UniProt P50579). The experiment in a line: MetAP2 enzyme assay, MetAP2 enzyme complexed with cobalt ions. The note with it: MetAP2 Co pIC50, 10 μM CoCl2; -log(IC50), IC50 molar.
T1 sequence (P50579 whole entry): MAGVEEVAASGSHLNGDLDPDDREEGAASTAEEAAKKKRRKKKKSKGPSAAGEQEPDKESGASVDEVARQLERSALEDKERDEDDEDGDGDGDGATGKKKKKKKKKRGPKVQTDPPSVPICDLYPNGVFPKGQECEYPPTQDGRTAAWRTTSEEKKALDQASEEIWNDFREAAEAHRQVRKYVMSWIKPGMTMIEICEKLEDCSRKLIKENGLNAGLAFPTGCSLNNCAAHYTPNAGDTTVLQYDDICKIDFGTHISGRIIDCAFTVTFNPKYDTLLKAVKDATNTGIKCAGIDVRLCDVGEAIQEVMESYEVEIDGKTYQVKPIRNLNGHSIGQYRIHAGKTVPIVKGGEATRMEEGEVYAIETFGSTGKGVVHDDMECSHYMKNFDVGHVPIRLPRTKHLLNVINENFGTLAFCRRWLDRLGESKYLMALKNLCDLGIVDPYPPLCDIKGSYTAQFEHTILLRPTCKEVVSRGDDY
The target in assay [2] is T1, human MetAP2 enzyme. The experiment in a line: MetAP2 enzyme assay, MetAP2 enzyme complexed with manganese ions. The note with it: MetAP2 Mn pIC50, 10 μM MnCl2; -log(IC50), IC50 molar.

Regarding `Cc1nc(C(=O)NCCC#N)ccc1-n1c2ccc(F)cc2c2[nH]ncc21` [Example 122, N-(2-Cyanoethyl)-5-(7-fluoropyrazolo[4,3-b]indol-4(1H)-yl)-6-methylpicolinamide], the IC50 in assay [1] and in assay [2] was 7.94 nM throughout.
On to `Cc1nc(C(=O)NC[C@@H](C)O)ccc1-n1c2ccc(F)cc2c2[nH]ncc21` [Example 123, 5-(7-Fluoropyrazolo[4,3-b]indol-4(1H)-yl)-N—((R)-2-hydroxypropyl)-6-methylpicolinamide], for which the 50% inhibitory concentration (IC50) in assay [1] was 7.94 nM; in assay [2], 6.31 nM.
Taken in the same sequence, the figures for `Cc1nc(C(=O)NCC(N)=O)ccc1-n1c2ccc(F)cc2c2[nH]ncc21` [Example 124, N-(2-Amino-2-oxoethyl)-5-(7-fluoropyrazolo[4,3-b]indol-4(1H)-yl)-6-methylpicolinamide] were 10 nM and 12.6 nM.
Taken in the same sequence, the figures for `Cc1nc(C(=O)N2CC(C#N)C2)ccc1-n1c2ccc(F)cc2c2[nH]ncc21` [Example 125, 1-(5-(7-Fluoropyrazolo[4,3-b]indol-4(1H)-yl)-6-methylpicolinoyl)azetidine-3-carbonitrile] were 12.6 nM and 10 nM.
For `Cc1nc(C(=O)NC[C@H](C)O)ccc1-n1c2ccc(F)cc2c2[nH]ncc21` [Example 126, 5-(7-Fluoropyrazolo[4,3-b]indol-4(1H)-yl)-N-((2S)-2-hydroxypropyl)-6-methylpicolinamide], in that order: 10 nM and 10 nM.
Regarding `Cc1nc(N2CC(O)C2)ncc1-n1c2ccc(F)cc2c2[nH]ncc21` [Example 127, 1-(5-(7-Fluoropyrazolo[4,3-b]indol-4(1H)-yl)-4-methylpyrimidin-2-yl)azetidin-3-ol], the IC50 in assay [1] is 7.94 nM; in assay [2] it was 15.8 nM.
For the compound `Cc1nc2[nH]cnc2cc1-n1c2cc(Cl)ccc2c2[nH]ncc21` [Example 128, 6-Chloro-4-(5-methyl-3H-imidazo[4,5-b]pyridin-6-yl)-1,4-dihydropyrazolo[4,3-b]indole], the values for the concentration for half-maximal inhibition (IC50) in assay [1] and in assay [2] were 79.4 nM and 63.1 nM, respectively.
Regarding `Cc1nc2[nH]cnc2cc1-n1c2cc(Cl)c(F)cc2c2[nH]ncc21` [Example 129, 6-Chloro-7-fluoro-4-(5-methyl-3H-imidazo[4,5-b]pyridin-6-yl)-1,4-dihydropyrazolo[4,3-b]indole], the IC50 is 25.1 nM in assay [1] and 50.1 nM in assay [2].
For `Cc1nc2[nH]cnc2cc1-n1c2cc(F)c(F)cc2c2[nH]ncc21` [Example 130, 6,7-Difluoro-4-(5-methyl-3H-imidazo[4,5-b]pyridin-6-yl)-1,4-dihydropyrazolo[4,3-b]indole], the half-maximal inhibitory concentration (IC50) is 10 nM in assay [1] and 12.6 nM in assay [2].
For `Cc1cc2c(cc1F)c1[nH]ncc1n2-c1cc2[nH]cnc2nc1C` [Example 131, 7-Fluoro-6-methyl-4-(5-methyl-1H-imidazo[4,5-b]pyridin-6-yl)-1,4-dihydropyrazolo[4,3-b]indole], in that order: 12.6 nM and 7.94 nM.
For `CC(c1ccccc1)n1c2ccc(F)cc2c2[nH]ncc21` (centres unmarked) [Example 132, 7-Fluoro-4-(1-phenylethyl)-1,4-dihydropyrazolo[4,3-b]indole], in that order: 50.1 nM and 50.1 nM.
For the compound `Cc1nc(CCS(C)(=O)=O)ccc1-n1c2ccc(F)cc2c2[nH]ncc21` [Example 133, 7-Fluoro-4-(2-methyl-6-(2-(methylsulfonyl)ethyl)pyridin-3-yl)-1,4-dihydropyrazolo[4,3-b]indole], the concentration for half-maximal inhibition (IC50) in assay [1] is 10 nM; in assay [2], 6.31 nM.
With `OCc1nn(C(F)F)cc1-n1c2ccc(F)cc2c2[nH]ncc21` [Example 134, (1-(Difluoromethyl)-4-(7-fluoropyrazolo[4,3-b]indol-4(1H)-yl)-1H-pyrazol-3-yl)methanol], the 50% inhibitory concentration (IC50) was 15.8 nM in assay [1] and 6.31 nM in assay [2].
